Like-named read-outs stand apart in the source and are kept apart here.
Experiment: Drug interaction study with rifampin (CYP3A4 inducer): plasma PK of i.v. eravacycline and metabolites
Type: in vivo, human
Conditions: for AUC0–24 / AUC(0-inf) / clearance / half-life / Vd / Cmax: n = 12; for Vd: read-out: Vss; for Cmax: iv
Procedure: Two single-center, open-label studies were conducted to evaluate the effects of itraconazole (CYP3A4 inhibitor) and rifampin (CYP3A4 inducer) on the pharmacokinetics of i.v. eravacycline in healthy subjects.
(ii) Study design. Each study included a 28-day screening period, a 13-day treatment period (19 days for rifampin), and an end-of-study visit 2 weeks after the last dose of study drug. […] For the itraconazole study, 200 mg oral itraconazole was administered q12h on day 8 and q24h on days 9 and 10. For the rifampin study, 600 mg oral rifampin was administered q24h from day 8 to day 17. All study treatments were administered in the fasting state.
(iii) Study assessments. Blood samples for PK analysis of eravacycline and its metabolites, TP-498, TP-6208, and TP-034, were collected predose and 1, 2, 4, 6, 8, 12, 24, 36, and 48 h after the start of the i.v. infusion on day 1 and day 10 (itraconazole) or day 1 and day 17 (rifampin). Safety assessments included AEs, clinical laboratory safety tests (hematology, serum chemistry, electrolytes, coagulation, urinalysis, and lipid profile), vital signs, physical examinations, and 12-lead ECG.
Concentrations of eravacycline, TP-498, and TP-6208 in human plasma samples were measured by LC-tandem MS after solid-phase extraction over a calibration range of 5.00 to 500 ng/ml. The LLOQ for eravacycline, TP-498, TP-6208, and TP-034 in human plasma was 5.00 ng/ml. Samples with eravacycline initial concentrations above the upper limit of quantification (500 ng/ml) were diluted appropriately with control blank human plasma and reanalyzed. There was no interference seen when human plasma was fortified with eravacycline, TP-498, TP-6208, and either itraconazole or rifampin.
(iv) Pharmacokinetic analysis. PK assessments included Cmax, Tmax, AUC0–24, AUC0–t, t1/2, CL, and Vss. Actual sampling time was used for PK calculations. PK parameters were derived by noncompartmental analysis. Descriptive statistics were calculated for analyte concentrations at each evaluation time point and for all quantitative PK parameters of eravacycline, TP-498, TP-6208, and TP-034 for day 1 and day 10 (day 17 for rifampin). The effect of itraconazole or rifampin on the PK profile of i.v. eravacycline was evaluated by comparing log-transformed PK parameters (Cmax and AUC0–t) associated with the administration of study drug on day 1 and day 10 (itraconazole) or day 1 and day 17 (rifampin) using paired t tests. The ratio and 90% confidence interval (CI) were presented after back transformation to the original scale. Pharmacokinetic variables were calculated using WinNonlin Professional.

[1] = eravacycline plus rifampin (day 17) vs eravacycline alone (day 1), 1 mg/kg i.v.
[2] = human, plasma, intravenous, 1 mg/kg, day 1, eravacycline alone, mean ± SD
[3] = human, plasma, intravenous, day 17, with rifampin, mean ± SD

CN(C)[C@@H]1C(O)=C(C(N)=O)C(=O)[C@@]2(O)C(O)=C3C(=O)c4c(O)c(NC(=O)CN5CCCC5)cc(F)c4C[C@H]3C[C@@H]12 [eravacycline]
AUC0–24 (day 1, eravacycline alone, mean ± SD): 4,100 ± 589 h·ng/ml | AUC0–24 (day 17, with rifampin, mean ± SD): 3,090 ± 568 h·ng/ml | decrease of AUC0–24 with coadministration of rifampin (day 17 vs day 1): approximately 25% | decrease of AUC0–∞ with coadministration of rifampin (day 17 vs day 1): ~35% | increase of CL with coadministration of rifampin (day 17 vs day 1): approximately 50% | Ratio of geometric mean AUC0–t, day 17/day 1 [1]: 67.9% | Ratio of geometric mean Cmax, day 17/day 1 [1]: 106.5% | AUC(0-inf) [2]: 5380 ng·h/mL | clearance [2]: 3.2 ± 0.6 mL/min/kg | half-life [2]: 15 ± 2 h | Vd [2]: 2.85 ± 0.29 L/kg | AUC(0-t) (human, plasma, intravenous, 1 mg/kg, day 1, eravacycline alone, read-out: AUC0–t (distribution, as worded in the text)): 4100 ng·h/mL | AUC(0-inf) [3]: 3520 ng·h/mL | clearance [3]: 4.94 ± 1.08 mL/min/kg | half-life [3]: 11 ± 2.3 h | Vd [3]: 2.49 ± 0.51 L/kg | Cmax (human, plasma, day 1, eravacycline 1 mg/kg i.v. alone, mean ± SD): 1170 ng/mL | Cmax (human, plasma, day 17, eravacycline 1 mg/kg i.v. with rifampin 600 mg daily day 8 to 17, mean ± SD): 1260 ng/mL
